The nature of the data set: in vivo. The note with it: mouse, plasma; for clearance: iv, 15 mg/kg.

Usually clearance stands for the volume of plasma or blood freed of the substance per unit of time. In turn, `CCN1C(=O)[C@@H](NC(=O)c2cccc(C(F)(F)F)c2)[C@@H](c2ccc(F)cc2)c2c(CN)nn(-c3ccccc3)c21` (relative stereo) [Compound 40, N-(rel-(4S,5S)-3-(aminomethyl)-7-ethyl-4-(4-fluorophenyl)-6-oxo-1-phenyl-4,5,6,7-tetrahydro-1H-pyrazolo[3,4-b]pyridin-5-yl)-3-(trifluoromethyl)benzamide] had a clearance of 20 mL/min/kg.
Broadly, the AUC is concentration integrated over time. Read a high AUC as more exposure. In turn, `CCN1C(=O)[C@@H](NC(=O)c2cccc(C)c2)[C@@H](c2ccc(F)cc2)c2c(C)nn(-c3ccccc3)c21` (relative stereo) [Compound 2, N-(rel-(4S,5S)-7-ethyl-4-(4-fluorophenyl)-3-methyl-6-oxo-1-phenyl-4,5,6,7-tetrahydro-1H-pyrazolo[3,4-b]pyridin-5-yl)-3-methylbenzamide] showed a clearance of 86.7 mL/min/kg. Moreover, the AUC (po, 50 mg/kg) was 2.9 µM·h.

For the origin of these results see PMC8159160 (Journal of medicinal chemistry, 2021).
